Assay results taken from ChEMBL document CHEMBL3611970, “Synthesis and evaluation of isatin-β-thiosemicarbazones as novel agents against antibiotic-resistant Gram-positive bacterial species” (2015).
In brackets after ≈: the same amount, converted by molar mass.

Legend:
Type in all cases: functional
Staphylococcus aureus [1] = assay: Antimicrobial activity against methicillin-resistant Staphylococcus aureus 309-6 clinical isolate after 16 hrs by broth microdilution method; conditions: 309-6, 16 h
Staphylococcus aureus [2] = assay: Antimicrobial activity against methicillin-resistant Staphylococcus aureus Chaoyang clinical isolate after 16 hrs by broth microdilution method
Staphylococcus aureus [3] = assay: Antimicrobial activity against methicillin-resistant Staphylococcus aureus 309-3 clinical isolate after 16 hrs by broth microdilution method; conditions: 309-3, 16 h
Bacillus spizizenii = assay: Antimicrobial activity against Bacillus subtilis ATCC 6633 after 16 hrs by broth microdilution method; conditions: ATCC 6633, 16 h
Staphylococcus aureus [4] = assay: Antimicrobial activity against methicillin-resistant Staphylococcus aureus 309-1 clinical isolate after 16 hrs by broth microdilution method; conditions: 309-1, 16 h
Staphylococcus aureus [5] = assay: Antimicrobial activity against methicillin-resistant Staphylococcus aureus 309-8 clinical isolate after 16 hrs by broth microdilution method; conditions: 309-8, 16 h
Enterococcus faecalis [6] = assay: Antimicrobial activity against vancomycin-susceptible Enterococcus faecalis after 16 hrs by broth microdilution method
Staphylococcus aureus [7] = assay: Antimicrobial activity against methicillin-resistant Staphylococcus aureus 309-4 clinical isolate after 16 hrs by broth microdilution method; conditions: 309-4, 16 h
Staphylococcus aureus [8] = assay: Antimicrobial activity against methicillin-resistant Staphylococcus aureus 309-7 clinical isolate after 16 hrs by broth microdilution method; conditions: 309-7, 16 h
Staphylococcus aureus [9] = assay: Antimicrobial activity against methicillin-resistant Staphylococcus aureus 8-21 clinical isolate after 16 hrs by broth microdilution method; conditions: 8-21, 16 h
Staphylococcus aureus [10] = assay: Antimicrobial activity against methicillin-resistant Staphylococcus aureus 8-24 clinical isolate after 16 hrs by broth microdilution method; conditions: 8-24, 16 h
Klebsiella pneumoniae = assay: Antimicrobial activity against Klebsiella pneumoniae KP-249 clinical isolate after 16 hrs by broth microdilution method; conditions: KP-249, 16 h
Enterococcus faecalis [11] = assay: Antimicrobial activity against Enterococcus faecalis VRE-309 after 16 hrs by broth microdilution method; conditions: VRE-309, 16 h
Staphylococcus aureus [12] = assay: Antimicrobial activity against methicillin-resistant Staphylococcus aureus 6-42 clinical isolate after 16 hrs by broth microdilution method; conditions: 6-42, 16 h
Pseudomonas aeruginosa = assay: Antimicrobial activity against Pseudomonas aeruginosa PAO1 after 16 hrs by broth microdilution method; conditions: PAO1, 16 h
Staphylococcus aureus [13] = assay: Antimicrobial activity against Staphylococcus aureus ATCC 6538 after 16 hrs by broth microdilution method; conditions: ATCC 6538, 16 h
Staphylococcus aureus [14] = assay: Antimicrobial activity against methicillin-resistant Staphylococcus aureus 6281 clinical isolate after 16 hrs by broth microdilution method; conditions: Staphylococcus aureus, 6281, 16 h

SMILES	MIC (Staphylococcus aureus [1]) [µg/mL]	MIC (Staphylococcus aureus [2]) [µg/mL]	MIC (Staphylococcus aureus [3]) [µg/mL]	MIC (Bacillus spizizenii) [µg/mL]	MIC (Staphylococcus aureus [4]) [µg/mL]	MIC (Staphylococcus aureus [5]) [µg/mL]	MIC (Enterococcus faecalis [6]) [µg/mL]	MIC (Staphylococcus aureus [7]) [µg/mL]	MIC (Staphylococcus aureus [8]) [µg/mL]	MIC (Staphylococcus aureus [9]) [µg/mL]	MIC (Staphylococcus aureus [10]) [µg/mL]	MIC (Klebsiella pneumoniae) [µg/mL]	MIC (Enterococcus faecalis [11]) [µg/mL]	MIC (Staphylococcus aureus [12]) [µg/mL]	MIC (Pseudomonas aeruginosa) [µg/mL]	MIC (Staphylococcus aureus [13]) [µg/mL]	MIC (Staphylococcus aureus [14]) [µg/mL]
O=C1Nc2c(Cl)cccc2/C1=N/NC(=S)Nc1cccc(F)c1	1.56 (≈ 4.47 µM)	0.39 (≈ 1.12 µM)	1.56 (≈ 4.47 µM)	≤ 0.78	1.56 (≈ 4.47 µM)	1.56 (≈ 4.47 µM)	3.12 (≈ 8.95 µM)	0.78 (≈ 2.24 µM)	0.78 (≈ 2.24 µM)	1.56 (≈ 4.47 µM)	1.56 (≈ 4.47 µM)	> 100	1.56 (≈ 4.47 µM)	0.78 (≈ 2.24 µM)	> 100	1.56 (≈ 4.47 µM)	3.12 (≈ 8.95 µM)
O=C1Nc2c(I)cccc2/C1=N/NC(=S)Nc1cccc(F)c1	1.56 (≈ 3.54 µM)	0.78 (≈ 1.77 µM)	1.56 (≈ 3.54 µM)	≤ 0.78	0.78 (≈ 1.77 µM)	0.78 (≈ 1.77 µM)	6.25 (≈ 14.2 µM)	0.78 (≈ 1.77 µM)	0.78 (≈ 1.77 µM)	1.56 (≈ 3.54 µM)	1.56 (≈ 3.54 µM)	> 100	3.12 (≈ 7.09 µM)	0.78 (≈ 1.77 µM)	> 100	1.56 (≈ 3.54 µM)	3.12 (≈ 7.09 µM)
O=C1Nc2c(I)cccc2/C1=N/NC(=S)Nc1cccc(Cl)c1	6.25 (≈ 13.7 µM)	0.78 (≈ 1.71 µM)	3.12 (≈ 6.83 µM)	≤ 0.78	3.12 (≈ 6.83 µM)	6.25 (≈ 13.7 µM)	12.5 (≈ 27.4 µM)	1.56 (≈ 3.42 µM)	3.12 (≈ 6.83 µM)	6.25 (≈ 13.7 µM)	3.12 (≈ 6.83 µM)	> 100	3.12 (≈ 6.83 µM)	3.12 (≈ 6.83 µM)	> 100	3.12 (≈ 6.83 µM)	6.25 (≈ 13.7 µM)
Cc1ccccc1NC(=S)N/N=C1\C(=O)Nc2c(I)cccc21	6.25 (≈ 14.3 µM)	0.78 (≈ 1.79 µM)	3.12 (≈ 7.15 µM)	≤ 0.78	3.12 (≈ 7.15 µM)	3.12 (≈ 7.15 µM)	12.5 (≈ 28.7 µM)	1.56 (≈ 3.58 µM)	1.56 (≈ 3.58 µM)	1.56 (≈ 3.58 µM)	3.12 (≈ 7.15 µM)	> 100	6.25 (≈ 14.3 µM)	0.78 (≈ 1.79 µM)	> 100	3.12 (≈ 7.15 µM)	6.25 (≈ 14.3 µM)
O=C1Nc2ccccc2/C1=N/NC(=S)Nc1ccc(F)cc1	–	3.12 (≈ 9.93 µM)	–	1.56 (≈ 4.96 µM)	–	–	–	–	–	–	–	–	–	–	–	6.25 (≈ 19.9 µM)	–
Cc1ccc(NC(=S)N/N=C2\C(=O)Nc3c(C)cccc32)cc1	3.12 (≈ 9.62 µM)	1.56 (≈ 4.81 µM)	3.12 (≈ 9.62 µM)	≤ 0.78	3.12 (≈ 9.62 µM)	1.56 (≈ 4.81 µM)	6.25 (≈ 19.3 µM)	1.56 (≈ 4.81 µM)	1.56 (≈ 4.81 µM)	3.12 (≈ 9.62 µM)	3.12 (≈ 9.62 µM)	> 100	3.12 (≈ 9.62 µM)	1.56 (≈ 4.81 µM)	> 100	3.12 (≈ 9.62 µM)	3.12 (≈ 9.62 µM)
COc1cccc(OC)c1C(=O)N[C@@H]1C(=O)N2[C@@H]1SC(C)(C)[C@@H]2C(=O)O [METHICILLIN]	> 200	–	> 200	–	> 200	> 200	–	> 200	> 200	> 200	> 200	–	–	> 200	–	–	> 200
O=C1Nc2c(I)cccc2/C1=N/NC(=S)Nc1ccc(Cl)cc1	3.12 (≈ 6.83 µM)	0.78 (≈ 1.71 µM)	1.56 (≈ 3.42 µM)	≤ 0.78	1.56 (≈ 3.42 µM)	1.56 (≈ 3.42 µM)	6.25 (≈ 13.7 µM)	0.78 (≈ 1.71 µM)	0.78 (≈ 1.71 µM)	1.56 (≈ 3.42 µM)	1.56 (≈ 3.42 µM)	> 100	3.12 (≈ 6.83 µM)	1.56 (≈ 3.42 µM)	> 100	1.56 (≈ 3.42 µM)	3.12 (≈ 6.83 µM)
COc1ccc(NC(=S)N/N=C2\C(=O)Nc3c(I)cccc32)cc1	25 (≈ 55.3 µM)	1.56 (≈ 3.45 µM)	12.5 (≈ 27.6 µM)	3.12 (≈ 6.9 µM)	6.25 (≈ 13.8 µM)	6.25 (≈ 13.8 µM)	> 100	6.25 (≈ 13.8 µM)	1.56 (≈ 3.45 µM)	6.25 (≈ 13.8 µM)	6.25 (≈ 13.8 µM)	> 100	> 100	3.12 (≈ 6.9 µM)	> 100	> 100	12.5 (≈ 27.6 µM)
Cc1cccc(NC(=S)N/N=C2\C(=O)Nc3c(Cl)cccc32)c1	1.56 (≈ 4.52 µM)	0.78 (≈ 2.26 µM)	1.56 (≈ 4.52 µM)	≤ 0.78	0.78 (≈ 2.26 µM)	1.56 (≈ 4.52 µM)	6.25 (≈ 18.1 µM)	1.56 (≈ 4.52 µM)	0.78 (≈ 2.26 µM)	0.78 (≈ 2.26 µM)	1.56 (≈ 4.52 µM)	> 100	3.12 (≈ 9.05 µM)	0.78 (≈ 2.26 µM)	> 100	1.56 (≈ 4.52 µM)	3.12 (≈ 9.05 µM)
Cc1ccccc1NC(=S)N/N=C1\C(=O)Nc2c(F)cccc21	3.12 (≈ 9.5 µM)	1.56 (≈ 4.75 µM)	3.12 (≈ 9.5 µM)	≤ 0.78	1.56 (≈ 4.75 µM)	1.56 (≈ 4.75 µM)	6.25 (≈ 19 µM)	1.56 (≈ 4.75 µM)	1.56 (≈ 4.75 µM)	1.56 (≈ 4.75 µM)	1.56 (≈ 4.75 µM)	> 100	6.25 (≈ 19 µM)	1.56 (≈ 4.75 µM)	> 100	3.12 (≈ 9.5 µM)	3.12 (≈ 9.5 µM)
COc1ccc(NC(=S)N/N=C2\C(=O)Nc3c(F)cccc32)cc1	3.12 (≈ 9.06 µM)	1.56 (≈ 4.53 µM)	3.12 (≈ 9.06 µM)	1.56 (≈ 4.53 µM)	3.12 (≈ 9.06 µM)	3.12 (≈ 9.06 µM)	> 100	3.12 (≈ 9.06 µM)	1.56 (≈ 4.53 µM)	3.12 (≈ 9.06 µM)	3.12 (≈ 9.06 µM)	> 100	> 100	3.12 (≈ 9.06 µM)	> 100	3.12 (≈ 9.06 µM)	6.25 (≈ 18.1 µM)
O=C1Nc2c(F)cccc2/C1=N/NC(=S)Nc1ccccc1	–	1.56 (≈ 4.96 µM)	–	≤ 0.78	–	–	–	–	–	–	–	–	–	–	–	3.12 (≈ 9.93 µM)	–
O=C1Nc2c(F)cccc2/C1=N/NC(=S)Nc1cccc(F)c1	1.56 (≈ 4.69 µM)	0.39 (≈ 1.17 µM)	0.78 (≈ 2.35 µM)	≤ 0.78	0.78 (≈ 2.35 µM)	0.78 (≈ 2.35 µM)	–	0.39 (≈ 1.17 µM)	0.39 (≈ 1.17 µM)	0.78 (≈ 2.35 µM)	0.78 (≈ 2.35 µM)	> 100	1.56 (≈ 4.69 µM)	0.39 (≈ 1.17 µM)	> 100	0.78 (≈ 2.35 µM)	1.56 (≈ 4.69 µM)
O=C1Nc2ccccc2/C1=N/NC(=S)Nc1ccccc1	–	3.12 (≈ 10.5 µM)	–	1.56 (≈ 5.26 µM)	–	–	–	–	–	–	–	–	–	–	–	3.12 (≈ 10.5 µM)	–
O=C(O)c1cn(C2CC2)c2cc(N3CCNCC3)c(F)cc2c1=O [CIPROFLOXACIN]	–	–	–	–	–	–	–	–	–	–	–	–	–	–	1 (≈ 3.02 µM)	–	–
O=C1Nc2ccc([N+](=O)[O-])cc2/C1=N/NC(=S)Nc1ccc(F)cc1	–	12.5 (≈ 34.8 µM)	–	25 (≈ 69.6 µM)	–	–	–	–	–	–	–	–	–	–	–	6.25 (≈ 17.4 µM)	–
O=C1Nc2ccc(Cl)cc2/C1=N/NC(=S)Nc1ccc(F)cc1	–	3.12 (≈ 8.95 µM)	–	6.25 (≈ 17.9 µM)	–	–	–	–	–	–	–	–	–	–	–	12.5 (≈ 35.8 µM)	–
O=C1Nc2c(Br)cc(Br)cc2/C1=N/NC(=S)Nc1ccc(F)cc1	–	6.25 (≈ 13.2 µM)	–	1.56 (≈ 3.3 µM)	–	–	–	–	–	–	–	–	–	–	–	12.5 (≈ 26.5 µM)	–
O=C1Nc2ccc(Br)cc2/C1=N/NC(=S)Nc1ccccc1	–	6.25 (≈ 16.7 µM)	–	≤ 0.78	–	–	–	–	–	–	–	–	–	–	–	6.25 (≈ 16.7 µM)	–
O=C1Nc2c(Br)cc([N+](=O)[O-])cc2/C1=N/NC(=S)Nc1ccc(F)cc1	–	3.12 (≈ 7.12 µM)	–	≤ 0.78	–	–	–	–	–	–	–	–	–	–	–	1.56 (≈ 3.56 µM)	–
CN[C@H](CC(C)C)C(=O)N[C@H]1C(=O)N[C@@H](CC(N)=O)C(=O)N[C@H]2C(=O)N[C@H]3C(=O)N[C@H](C(=O)N[C@H](C(=O)O)c4cc(O)cc(O)c4-c4cc3ccc4O)[C@H](O)c3ccc(c(Cl)c3)Oc3cc2cc(c3O[C@@H]2O[C@H](CO)[C@@H](O)[C@H](O)[C@H]2O[C@H]2C[C@](C)(N)[C@H](O)[C@H](C)O2)Oc2ccc(cc2Cl)[C@H]1O [VANCOMYCIN]	–	–	–	0.5 (≈ 0.345 µM)	–	–	2 (≈ 1.38 µM)	–	–	–	–	–	> 8	–	–	–	–
O=C1Nc2ccc(F)cc2/C1=N/NC(=S)Nc1ccc(F)cc1	–	25 (≈ 75.2 µM)	–	25 (≈ 75.2 µM)	–	–	–	–	–	–	–	–	–	–	–	25 (≈ 75.2 µM)	–
